The source of these data is patent US8785488B2 (Exelixis Patent Company LLC, priority 2009, dated 2014).

Each structure is given as a SMILES string.

One experiment has as its target T1, human TGR5 (h-TGR5) (Homo sapiens, UniProt Q8TDU6).
T1 construct: expressed in transfected cells
T1 sequence (Q8TDU6 1-330): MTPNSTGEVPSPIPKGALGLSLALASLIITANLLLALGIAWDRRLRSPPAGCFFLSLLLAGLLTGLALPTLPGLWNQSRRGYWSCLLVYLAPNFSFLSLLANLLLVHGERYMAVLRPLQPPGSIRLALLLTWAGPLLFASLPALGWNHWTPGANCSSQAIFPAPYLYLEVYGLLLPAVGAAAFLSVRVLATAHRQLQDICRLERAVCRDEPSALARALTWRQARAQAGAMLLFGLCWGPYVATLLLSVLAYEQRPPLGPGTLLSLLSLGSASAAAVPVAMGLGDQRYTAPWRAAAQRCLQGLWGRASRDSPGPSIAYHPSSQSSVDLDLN
The experiment is described as follows: TGR5/CRE-Luciferiase Assay (HEK 293 hTGR5/CRE-Luc cells). The note with it: h-TGR5 CRE-Luc EC50, Table 1; read-out: CRE-Luc (EC50). It counts as cell-based. In outline: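 HEK293 cells stably carrying hTGR5 and a CRE-luciferase reporter were exposed to serially diluted compounds (diluted in DMEM with 5% DMSO) for 6 h. Cells were then lysed in luciferase buffer, luminescence was read, and EC50 values were derived from dose-response curves.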

A further experiment concerns the target T2, h-TGR5 (Homo sapiens, UniProt Q8TDU6).
T2 construct: expressed in transfected cells
T2 sequence (Q8TDU6 1-330): T1 sequence (Q8TDU6 1-330)
In words: TGR5 cAMP Assay using Cisbio cAMP Dynamic2 htrf kit (hTGR5CRE-luc HEK 293 cells). The format is cell-based. The conditions noted are these: h-TGR5 cAMP EC50, Table 1; read-out: cAMP (EC50). In outline: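 […], 4000 hTGR5CRE-luc HEK 293 cells per well, with 0.5 mM IBMX and d2-cAMP, were incubated 30 min at room temperature with compounds in 8-point half-log series, in quadruplicate.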

For the molecule `CC(C)(c1ccc(Cl)c(Cl)c1)c1cnc(SCc2c(F)cc(C(=O)O)cc2Cl)n1-c1ccc(F)c(OCCCO)c1` [3-chloro-4-{[(5-[1-(3,4-dichlorophenyl)-1-methylethyl]-1-{4-fluoro-3-[(3-hydroxypropyl)oxy]phenyl}-1H-imidazol-2-yl)thio]methyl}-5-fluorobenzoic acid], the EC50 on human TGR5 (h-TGR5) and on h-TGR5 was 100 to 1000 nM throughout.

For `COc1cc(-n2c(C(C)(C)c3ccc(F)c(Cl)c3)cnc2SCc2c(F)cc(CCCN(C)C)cc2F)ccc1F` [3-{4-[({5-[1-(3-chloro-4-fluorophenyl)-1-methylethyl]-1-[4-fluoro-3-(methyloxy)phenyl]-1H-imidazol-2-yl}thio)methyl]-3,5-difluorophenyl}-N,N-dimethylpropan-1-amine], the EC50 on human TGR5 (h-TGR5) and at h-TGR5 was less than 100 nM each time.

Turning to `COc1cc(C(C)(C)c2cnc(SCc3ccc(S(=O)(=O)NC(=O)NN4CCCC4)cc3F)n2-c2ccc(F)cc2)ccc1Cl` [4-({[5-{1-[4-chloro-3-(methyloxy)phenyl]-1-methylethyl}-1-(4-fluorophenyl)-1H-imidazol-2-yl]thio}methyl)-3-fluoro-N-[(pyrrolidin-1-ylamino)carbonyl]benzenesulfonamide], the figures for the EC50 on human TGR5 (h-TGR5) and on h-TGR5 were less than 100 nM and 100 to 1000 nM, respectively.

Turning to `COc1cc(C(C)(C)c2cnc(SCc3c(F)cc(C(=O)NCCCC(N)C(=O)O)cc3Cl)n2-c2ccc(F)cc2)ccc1Cl` [N-5-{[3-chloro-4-({[5-{1-[4-chloro-3-(methyloxy)phenyl]-1-methylethyl}-1-(4-fluorophenyl)-1H-imidazol-2-yl]thio}methyl)-5-fluorophenyl]carbonyl}-L-ornithine], the EC50 on human TGR5 (h-TGR5) and on h-TGR5 was less than 100 nM each time.

With `COc1cc(C(C)(C)c2cnc(SCc3c(F)cc(C(=O)O)cc3Cl)n2-c2ccc(F)cn2)ccc1Cl` [3-chloro-4-({[5-{1-[4-chloro-3-(methyloxy)phenyl]-1-methylethyl}-1-(5-fluoropyridin-2-yl)-1H-imidazol-2-yl]thio}methyl)-5-fluorobenzoic acid], the EC50 on human TGR5 (h-TGR5) and at h-TGR5 was less than 100 nM throughout.

Turning to `CC(C)(c1ccc(F)c(F)c1)c1cnc(SCc2ccc(S(=O)(=O)NC(=O)NN3CCCC3)cc2Cl)n1-c1ccc(F)c(Cl)c1` [3-chloro-4-[({1-(3-chloro-4-fluorophenyl)-5-[1-(3,4-difluorophenyl)-1-methylethyl]-1H-imidazol-2-yl}thio)methyl]-N-[(pyrrolidin-1-ylamino)carbonyl]benzenesulfonamide], the values for the EC50 on human TGR5 (h-TGR5) and at h-TGR5 were 100 to 1000 nM and 1000 to 10000 nM, respectively.

`CC(C)(c1ccc(Cl)c(Cl)c1)c1cnc(SCc2c(F)cc(C(=O)O)cc2F)n1-c1ccc(F)c(C(F)F)c1` [4-[({5-[1-(3,4-dichlorophenyl)-1-methylethyl]-1-[3-(difluoromethyl)-4-fluorophenyl]-1H-imidazol-2-yl}thio)methyl]-3,5-difluorobenzoic acid]: the EC50 on human TGR5 (h-TGR5) was less than 100 nM; at h-TGR5, 100 to 1000 nM.

Take `CC(C)NC(=O)NS(=O)(=O)c1ccc(CSc2ncc(C(C)(C)c3ccc(F)c(C#N)c3)n2-c2ccc(F)cc2)c(Cl)c1` [3-chloro-4-[({5-[1-(3-cyano-4-fluorophenyl)-1-methylethyl]-1-(4-fluorophenyl)-1H-imidazol-2-yl}thio)methyl]-N-{[(1-methylethyl)amino]carbonyl}benzenesulfonamide]: the EC50 on human TGR5 (h-TGR5) and on h-TGR5 was 100 to 1000 nM throughout.

For `COc1ccc(C(C)(C)c2cnc(CCc3c(F)cccc3Cl)n2-c2ccc(F)cc2)cc1OC` [5-{1-[3,4-bis(methyloxy)phenyl]-1-methylethyl}-2-[2-(2-chloro-6-fluorophenyl)ethyl]-1-(4-fluorophenyl)-1H-imidazole], the concentration for a half-maximal effect (EC50) at human TGR5 (h-TGR5) and at h-TGR5 was less than 100 nM each time.

As for `CC(C)(c1ccc(C(N)=O)c(Cl)c1)c1cnc(SCc2ccc(F)cc2Cl)n1-c1ccc(F)cc1` [2-chloro-4-{1-[2-{[(2-chloro-4-fluorophenyl)methyl]thio}-1-(4-fluorophenyl)-1H-imidazol-5-yl]-1-methylethyl}benzamide], the EC50 on human TGR5 (h-TGR5) is 100 to 1000 nM; at h-TGR5, less than 100 nM.

Take `COc1ccc(C(C)(C)c2cnc(SCc3cc(F)ccc3Cl)n2-c2ccc(F)cc2)cc1OC` [5-{1-[3,4-bis(methyloxy)phenyl]-1-methylethyl}-2-{[(2-chloro-5-fluorophenyl)methyl]thio}-1-(4-fluorophenyl)-1H-imidazole]: the EC50 at human TGR5 (h-TGR5) and on h-TGR5 was less than 100 nM in each case.

Take `COc1cc(-n2c(C(C)(C)c3ccc(F)c(C#N)c3)cnc2SCc2ccc(S(=O)(=O)NC(=O)NC(C)C)cc2Cl)ccc1F` [3-chloro-4-[({5-[1-(3-cyano-4-fluorophenyl)-1-methylethyl]-1-[4-fluoro-3-(methyloxy)phenyl]-1H-imidazol-2-yl}thio)methyl]-N-{[(1-methylethyl)amino]carbonyl}benzenesulfonamide]: the EC50 at human TGR5 (h-TGR5) and on h-TGR5 was less than 100 nM throughout.

For `CC(C)(c1ccc(Cl)c(Cl)c1)c1cnc(SCC2CCN(c3nnn[nH]3)C2)n1-c1ccc(F)cc1` (stereo not shown) [5-{3-[({5-[1-(3,4-dichlorophenyl)-1-methylethyl]-1-(4-fluorophenyl)-1H-imidazol-2-yl}thio)methyl]pyrrolidin-1-yl}-1H-tetrazole], the EC50 at human TGR5 (h-TGR5) lay within 100 to 1000 nM; at h-TGR5, 1000 to 10000 nM.

Turning to `COc1cc(C(C)(C)c2cnc(SCc3ccc(S(=O)(=O)NC(=O)NN4CCCC4)cc3Cl)n2-c2ccc(F)cc2F)ccc1Cl` [3-chloro-4-({[5-{1-[4-chloro-3-(methyloxy)phenyl]-1-methylethyl}-1-(2,4-difluorophenyl)-1H-imidazol-2-yl]thio}methyl)-N-[(pyrrolidin-1-ylamino)carbonyl]benzenesulfonamide], the EC50 at human TGR5 (h-TGR5) and on h-TGR5 was 100 to 1000 nM each time.

`COc1cc(C(C)(C)c2cnc(SCc3c(F)cc(C(=O)NCCS(=O)(=O)O)cc3F)n2-c2ccc(F)cc2)ccc1Cl` [2-({[4-({[5-{1-[4-chloro-3-(methyloxy)phenyl]-1-methylethyl}-1-(4-fluorophenyl)-1H-imidazol-2-yl]thio}methyl)-3,5-difluorophenyl]carbonyl}amino) ethanesulfonic acid]: the EC50 at human TGR5 (h-TGR5) and on h-TGR5 was less than 100 nM throughout.

For `COc1ccc(C(C)(C)c2cnc(SCc3c(F)cccc3Cl)n2-c2ccc(F)cc2)cc1` [2-{[(2-chloro-6-fluorophenyl)methyl]thio}-1-(4-fluorophenyl)-5-{1-methyl-1-[4-(methyloxy)phenyl]ethyl}-1H-imidazole], the figures for the EC50 on human TGR5 (h-TGR5) and at h-TGR5 were less than 100 nM and 100 to 1000 nM, respectively.

Turning to `COc1ccc(C(C)(C)c2cnc(CN(C)c3c(F)cccc3Cl)n2-c2ccc(F)cc2)cc1OC` [N-{[5-{1-[3,4-bis(methyloxy)phenyl]-1-methylethyl}-1-(4-fluorophenyl)-1H-imidazol-2-yl]methyl}-2-chloro-6-fluoro-N-methylaniline], the EC50 on human TGR5 (h-TGR5) and at h-TGR5 was less than 100 nM each time.

Take `COc1cc(C(C)(C)c2cnc(SCc3cc(C(=O)O)ccc3Cl)n2-c2ccc(F)cc2)ccc1Cl` [4-chloro-3-({[5-{1-[4-chloro-3-(methyloxy)phenyl]-1-methylethyl}-1-(4-fluorophenyl)-1H-imidazol-2-yl]thio}methyl)benzoic acid]: the EC50 on human TGR5 (h-TGR5) and at h-TGR5 was less than 100 nM throughout.

Take `COc1cc(C(C)(C)c2cnc(SCc3ccc(C(=O)O)cc3F)n2-c2ccc(F)cc2)ccc1Cl` [4-({[5-{1-[4-chloro-3-(methyloxy)phenyl]-1-methylethyl}-1-(4-fluorophenyl)-1H-imidazol-2-yl]thio}methyl)-3-fluorobenzoic acid]: the EC50 at human TGR5 (h-TGR5) and on h-TGR5 was less than 100 nM in each case.

For the molecule `COc1ccc(C(C)(C)c2cnc(SCc3ccc(F)c(S(N)(=O)=O)c3)n2-c2ccc(F)cc2)cc1Cl` [5-({[5-{1-[3-chloro-4-(methyloxy)phenyl]-1-methylethyl}-1-(4-fluorophenyl)-1H-imidazol-2-yl]thio}methyl)-2-fluorobenzenesulfonamide], the EC50 on human TGR5 (h-TGR5) and on h-TGR5 was less than 100 nM each time.

With `CC(C)(c1ccc2onc(N)c2c1)c1cnc(SCc2c(F)cc(C(=O)NC(CCCNC(=N)N)C(=O)O)cc2Cl)n1-c1ccc(F)cc1` [N-2-({4-[({5-[1-(3-amino-1,2-benzisoxazol-5-yl)-1-methylethyl]-1-(4-fluorophenyl)-1H-imidazol-2-yl}thio)methyl]-3-chloro-5-fluorophenyl}carbonyl)-D-arginine], the EC50 on human TGR5 (h-TGR5) and at h-TGR5 was less than 100 nM throughout.

In the case of `CC(C)(c1ccc(Cl)c(Cl)c1)c1cnc(SCc2c(F)cc(C(=O)O)cc2F)n1-c1ccc(F)cc1` [4-[({5-[1-(3,4-dichlorophenyl)-1-methylethyl]-1-(4-fluorophenyl)-1H-imidazol-2-yl}thio)methyl]-3,5-difluorobenzoic acid], the values for the EC50 on human TGR5 (h-TGR5) and on h-TGR5 were less than 100 nM and 100 to 1000 nM, respectively.

With `CC(C)(c1ccc(Cl)c(Cl)c1)c1cnc(SCC2CCN(c3nnn[nH]3)CC2)n1-c1ccc(F)cc1` [4-[({5-[1-(3,4-dichlorophenyl)-1-methylethyl]-1-(4-fluorophenyl)-1H-imidazol-2-yl}thio)methyl]-1-(1H-tetrazol-5-yl)piperidine], the EC50 is less than 100 nM on human TGR5 (h-TGR5) and 100 to 1000 nM on h-TGR5.
